Columns and labels:
Settings in all cases: exposure time: 72 h
[1] = system: E13 (patient-derived glioblastoma stem cells of classical subtype); test: surviving fraction (nuclei count normalised to DMSO); higher = more cells surviving (less toxic)
[2] = system: E31 (patient-derived glioblastoma stem cells of proneural subtype); test: as above
[3] = system: E57 (patient-derived glioblastoma stem cells of mesenchymal subtype); test: as above
[4] = system: FT3469 (normal neural stem cell line); test: as above
[5] = system: E28 (patient-derived glioblastoma stem cells of classical subtype); test: as above
[6] = system: E21 (patient-derived glioblastoma stem cells of mesenchymal subtype); test: as above
[7] = system: E34 (patient-derived glioblastoma stem cells of proneural subtype); test: as above
[8] = system: E13; test: phenotypic distance (Euclidean, principal components) from DMSO controls (arbitrary units); higher = stronger morphological change
[9] = system: E31; test: as above
[10] = system: E57; test: as above
[11] = system: FT3469; test: as above
[12] = system: E28; test: as above
[13] = system: E21; test: as above
[14] = system: E34; test: as above
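For phenotypic distance (Euclidean, principal components) from DMSO controls in this document: cell Painting imaging in 384-well plates, CellProfiler features reduced to at least 20 principal components, Euclidean distance versus same-plate DMSO vehicle wells (0.1% v/v), median over six images per well.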
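For surviving fraction (nuclei count normalised to DMSO) in this document: nuclei counted by high-content imaging of Hoechst-stained cells in laminin-coated 384-well plates, relative to 0.1% DMSO vehicle wells, with staurosporine as cell-death control.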

Nc1ncnc2c1c(-c1ccc(Oc3ccccc3)cc1)cn2C1CCCC1
Settings | phenotypic distance | surviving fraction
[1], 4.1 nM | – | 0.996
[1], 12.3 nM | – | 1.07
[1], 37 nM | – | 0.893
[1], 111.1 nM | – | 0.884
[1], 333.3 nM | – | 1.02
[1], 1000 nM | – | 0.997
[1], 3000 nM | – | 0.855
[2], 4.1 nM | – | 1.06
[2], 12.3 nM | – | 1.07
[2], 37 nM | – | 0.999
[2], 111.1 nM | – | 0.95
[2], 333.3 nM | – | 0.97
[2], 1000 nM | – | 0.936
[2], 3000 nM | – | 0.884
[3], 4.1 nM | – | 0.986
[3], 12.3 nM | – | 1.06
[3], 37 nM | – | 1.08
[3], 111.1 nM | – | 1.06
[3], 333.3 nM | – | 1.03
[3], 1000 nM | – | 0.942
[3], 3000 nM | – | 0.951
[4], 4.1 nM | – | 0.964
[4], 12.3 nM | – | 1.04
[4], 37 nM | – | 0.976
[4], 111.1 nM | – | 0.901
[4], 333.3 nM | – | 0.875
[4], 1000 nM | – | 0.967
[4], 3000 nM | – | 0.895
[5], 4.1 nM | – | 1.07
[5], 12.3 nM | – | 0.954
[5], 37 nM | – | 0.988
[5], 111.1 nM | – | 0.704
[5], 333.3 nM | – | 1.2
[5], 1000 nM | – | 0.86
[5], 3000 nM | – | 0.854
[6], 4.1 nM | – | 0.864
[6], 12.3 nM | – | 1.05
[6], 37 nM | – | 1.03
[6], 111.1 nM | – | 0.984
[6], 333.3 nM | – | 0.967
[6], 1000 nM | – | 1.01
[6], 3000 nM | – | 0.85
[7], 4.1 nM | – | 1.23
[7], 12.3 nM | – | 0.986
[7], 37 nM | – | 1.18
[7], 111.1 nM | – | 1.03
[7], 333.3 nM | – | 0.93
[7], 1000 nM | – | 0.958
[7], 3000 nM | – | 0.916
[8], 4.1 nM | 0.425 | –
[8], 12.3 nM | 1.04 | –
[8], 37 nM | 0.606 | –
[8], 111.1 nM | 0.653 | –
[8], 333.3 nM | 0.532 | –
[8], 1000 nM | 0.572 | –
[8], 3000 nM | 0.738 | –
[9], 4.1 nM | 0.613 | –
[9], 12.3 nM | 0.704 | –
[9], 37 nM | 0.739 | –
[9], 111.1 nM | 0.965 | –
[9], 333.3 nM | 0.777 | –
[9], 1000 nM | 1.23 | –
[9], 3000 nM | 0.466 | –
[10], 4.1 nM | 0.461 | –
[10], 12.3 nM | 1.24 | –
[10], 37 nM | 1 | –
[10], 111.1 nM | 1.29 | –
[10], 333.3 nM | 0.478 | –
[10], 1000 nM | 0.867 | –
[10], 3000 nM | 0.813 | –
[11], 4.1 nM | 0.487 | –
[11], 12.3 nM | 1.13 | –
[11], 37 nM | 0.764 | –
[11], 111.1 nM | 0.833 | –
[11], 333.3 nM | 1.17 | –
[11], 1000 nM | 0.824 | –
[11], 3000 nM | 0.929 | –
[12], 4.1 nM | 0.587 | –
[12], 12.3 nM | 0.603 | –
[12], 37 nM | 0.442 | –
[12], 111.1 nM | 0.847 | –
[12], 333.3 nM | 0.677 | –
[12], 1000 nM | 0.737 | –
[12], 3000 nM | 0.765 | –
[13], 4.1 nM | 0.617 | –
[13], 12.3 nM | 0.6 | –
[13], 37 nM | 0.721 | –
[13], 111.1 nM | 0.773 | –
[13], 333.3 nM | 0.934 | –
[13], 1000 nM | 1.32 | –
[13], 3000 nM | 0.949 | –
[14], 4.1 nM | 0.654 | –
[14], 12.3 nM | 0.927 | –
[14], 37 nM | 0.674 | –
[14], 111.1 nM | 0.841 | –
[14], 333.3 nM | 0.534 | –
[14], 1000 nM | 0.71 | –
[14], 3000 nM | 0.746 | –
